Data set [1] deals with horn bud tissue. Particulars: as a cryogenic fluid; cited from earlier work.
For data set [2], the system named is horn bud. The following applies: high concentrations injected into the horn bud; Koger 1976; cited from earlier work.
The test system of data set [3] is horn buds. The experiment in a line: Example 2: disbudding efficacy of chloroquine diphosphate and polidocanol, 90 days observation. Particulars: for No horn growth / Horn growth / Scurs / Success rate: 90 days. The data set is classed as in vivo, calves. The protocol: (§1) A study on calves was performed to test the disbudding efficacy from the administration to horn buds of chloroquine diphosphate and polidocanol.
The chloroquine diphosphate was administered as compositions comprising chloroquine diphosphate suspended in water. The compositions were prepared by dispersing chloroquine diphosphate powder into water for injection. Immediately before administration the compositions were shaken to re-suspend the chloroquine diphosphate.
(§2) The polidocanol was administered either as undiluted polidocanol when administered at 100% concentration, or as a diluted solution with water for the 90%, 50% and 10% concentration groups.
The animals in the study were divided into multiple groups. Groups 1 and 2 were administered saline solution (0.9% sodium chloride) administered as a single dose for group 1, and as divided doses for group 2. Each divided dose comprised 5 doses of 0.1 mL administered around the horn bud.
Groups 3 and 4 were administered chloroquine diphosphate at either 100 mg/ml or 300 mg/mL, and groups 5 to 8 were administered polidocanol are different concentrations ranging from 100% to 10% w/v.

The nature of data set [4]: Example 2: viscosity of the polidocanol compositions (observation). The following applies: eg. 90%. The data set is classed as physicochemical. Here is the method:
as §2

Data set [5] deals with horn buds. Kind of data set: General conclusion on chemical disbudding agents: efficacy. Type of data set: in vivo, calves. The protocol: (§3) A study was performed to test the disbudding efficacy from the administration to horn buds of mepacrine dihydrochloride, compared to a conventional hot iron disbudding method. The mepacrine dihydrochloride was administered as compositions comprising mepacrine dihydrochloride suspended in water. The compositions were prepared by dispersing mepacrine dihydrochloride powder into water for injection. Immediately before administration the compositions were shaken to re-suspend the mepacrine dihydrochloride.
as §1
(§4) Sixteen calves (4 to 6 days old) obtained from commercial dairy farms were used in this study. The calves were randomly assigned to receive one of the four formulations (Table 3). Animals were gently restrained and the hair around the horn bud region was clipped. The formulations (0.3 to 0.5 mL) were then injected subcutaneously under the right horn bud or around the right horn bud using a McLintock syringe and needle (22G 11/64″, 0.71*4.3 mm) which delivered 0.1 mL on each injection. The left horn bud acted as control. The details of the treatment are given in the below Table 3. […] The differences in the growth rate of the right and left horn buds were determined by measuring the height of the horn buds at regular intervals. Photos of the horn buds were taken at the same time. Calves will be euthanized after 4 months by intravenous injection of pentobarbitone sodium (100 mg/kg bodyweight) for gross pathology and histopathology of horn buds.

Data set [6] relates to horn buds. Kind of data set: Example 3: growth rate of horn buds / efficacy of mepacrine and eugenol formulations. The data set is classed as in vivo, calves (4 to 6 days old). Particulars: for Height of right horn bud on 40th day / Height of right horn bud on 80th day / Horn growth rate (height of horn buds on 80th day minus height on 40th day), right horn bud: individual calf. Here is the method: as §4, with “The formulations (0.3 to 0.5 mL) were then injected subcutaneously under the right horn bud or around the right horn bud using a McLintock syringe and needle (22G 11/64″, 0.71*4.3 mm) which delivered 0.1 mL on each injection.” left out

A short description of data set [7]: Example 3: pain related behaviors and adverse effects following injection. Type of data set: in vivo, calves (4 to 6 days old). The protocol: as §4
Data set [8] relates to horn-bud tissue. Particulars: injected under the horn bud; Sutherland et al 2019; cited from earlier work.
The subject of data set [9] is horn buds. Kind of data set: Example 1: disbudding efficacy of mepacrine dihydrochloride suspended in water, 90 days observation. The following applies: for Horn growth / Scurs / Success rate / No horn growth: 10 animals treated, 90 days. Type of data set: in vivo, calves (bovine dairy calves, 7 days of age). Here is the method: as §3
The animals in the study (calves) were divided into multiple groups. Groups 1 to 4 were administered a single dose of 0.5 mL of mepacrine dihydrochloride composition, with each being administered a composition with a different concentration of mepacrine dihydrochloride, ranging from 50 mg/mL to 400 mg/mL.
Groups 5 to 8 were administered a divided dose of 0.5 mL of mepacrine dihydrochloride composition, with each being administered a composition with a different concentration of mepacrine dihydrochloride, ranging from 50 mg/mL to 400 mg/mL. Each divided dose comprised 5 doses of 0.1 mL administered around the horn bud.
(§5) The administration of the mepacrine dihydrochloride was performed by injecting the mepacrine dihydrochloride composition using a McLintock pre-set syringe configured to administer up to 0.5 mL. The single dose administration for groups 1 to 4 was performed by injecting the composition directly into the horn bud. The divided dose administration for groups 5 to 8 was performed by injecting the smaller doses to the area immediately around the horn bud. The animals in control group 9 were first treated with a 2% lignocaine injection as a cornual nerve block and then disbudded using a conventional hot-iron.
The left horn bud on each animal was left untreated as a control.
(§6) The animals in the study were bovine dairy calves, progressively enrolled in the study and treated at 7 days of age.
The success rate is based on the proportion of treated horn buds that had no subsequent horn growth or presence of a scur. A horn scur is a distorted horn that is not attached to the skull. […] The untreated horn bud on every animal developed into a horn.

A short description of data set [10]: Example 1: pain response and procedure time. Type of data set: in vivo, calves (bovine dairy calves, 7 days of age). The protocol: as §3, §5, §6
The administration procedure of disbudding by administering mepacrine was less than 1 minute for each animal, compared to 5-10 minutes for the animals disbudded with the hot-iron.

The conditions of data set [11]: prior trials; cited from earlier work.
[12] abbreviates: 50% polidocanol (0.5 mL), 4 animals treated.
The mark [13] stands for this setting: 90% polidocanol (0.5 mL), 4 animals treated.
The mark [14] stands for this setting: 100% polidocanol (0.5 mL), 1 animal treated.
Where [15] appears, read: 100 mg/mL, single injection (0.5 mL), 3 animals treated.
[16] abbreviates: 300 mg/ml, single injection (0.5 mL), 4 animals treated.
Setting [17] is: 50 mg/mL, multiple injections (5 × 0.1 mL).
The mark [18] stands for this setting: 50 mg/mL, single injection (0.5 mL).
[19] abbreviates: 100 mg/mL, multiple injections (5 × 0.1 mL).
The mark [20] stands for this setting: 100 mg/mL, single injection (0.5 mL).
Where [21] appears, read: 200 mg/mL, multiple injections (5 × 0.1 mL).
Setting [22] is: 200 mg/mL, single injection (0.5 mL).
The mark [23] stands for this setting: 400 mg/mL, multiple injections (5 × 0.1 mL).
[24] abbreviates: 400 mg/mL, single injection (0.5 mL).

“Also recorded” adds a separate entry of the source. Where a name gives a salt, the structure may show the parent alone.

Turning to liquid nitrogen, the “Destruction of horn bud tissue” value in data set [1] is recorded as “almost entirely ineffective”.

In the case of `[Ca+2].[Cl-].[Cl-]` [calcium chloride], in data set [2], the Inflammation result was “significant inflammation” and the “Necrosis of the tissue” value is recorded as “causing necrosis of the tissue”.

On to Polidocanol, for which the No horn growth in data set [3] (10% polidocanol (0.5 mL), 1 animal treated) worked out at 1; in data set [3] (setting [13]), 1; in data set [3] (setting [14]), 1. Besides, the Horn growth in [3] (setting [12]) was determined as 3; in [3] (setting [13]) it was 1. Moreover, the Scurs in [3] (setting [12]) was 1; in data set [3] (setting [13]), 2. Also, the results for the Success rate in [3] (setting [12]), in data set [3] (setting [13]) and in data set [3] (setting [14]) were 0%, 25% and 100%, respectively. In addition, the “Disbudding success (in words)” value was “successful” in [3] (100% concentration and 10% concentration); “less successful” in data set [3] (other concentrations (90%, 50%)). Also, the “Viscosity of the higher concentration compositions” value in [4] is “highly viscous”. Moreover, in data set [5], the “Function as chemical disbudding agents” value is “effective chemical disbudding agents”.

In data set [3] (setting [15]), `CCN(CC)CCCC(C)Nc1ccnc2cc(Cl)ccc12` (stereo not drawn) [Chloroquine diphosphate] came in with a Horn growth of 2, a Scurs of 1 and a Success rate of 0%. Further, in data set [3] (300 mg/mL), the “Disbudding success (in words)” value is “some success”; the “Horn growth outcome (in words)” value was “half the animals having no horn growth at all, and the other have having only scurs forming”. For the same compound, in [3] (setting [16]), the No horn growth is 2, the Scurs turned out to be 2 and the Success rate turned out to be 50%. In addition, the “Function as chemical disbudding agents” value in data set [5] is listed as “effective chemical disbudding agents”.

As to `C=CCc1ccc(O)c(OC)c1` [Eugenol], the “Height of right horn bud on 40th day” value in data set [6] (0.2 mL under the horn bud) was “(5-5) mm”; in [6] (0.3 mL under the horn bud) it was “(8-8) mm”; in data set [6] (0.4 mL around the horn bud), 17 mm; in data set [6] (0.5 mL around the horn bud) it was 8 mm; in [6] (0.5 mL under the horn bud) it was 14 mm. Further, the “Height of right horn bud on 80th day” value in [6] (0.2 mL under the horn bud) is “(5-5) mm”; in data set [6] (0.3 mL under the horn bud), “(8-8) mm”; in [6] (0.4 mL around the horn bud), 19 mm; in data set [6] (0.5 mL around the horn bud), 10 mm; in data set [6] (0.5 mL under the horn bud) it was 22 mm. Moreover, the “Horn growth rate (height of horn buds on 80th day minus height on 40th day), right horn bud” value in [6] (0.2 mL under the horn bud) is given as 0 mm; in data set [6] (0.3 mL under the horn bud) it was 0 mm; in data set [6] (0.4 mL around the horn bud), 2mm; in [6] (0.5 mL around the horn bud), 2 mm; in [6] (0.5 mL under the horn bud) it was 8 mm. Further, the “Effective (number of animals), subjective assessment of efficacy” value in [6] (N = 5 (aqueous mepacrine), 5 (eugenol), 2 (20:80), 3 (80:20)) is reported as 3. Also, in data set [6] (N = 5 (aqueous mepacrine; around the horn bud), 5 (eugenol), 3 (80:20; around the horn bud)), the “Ineffective (number of animals), subjective assessment of efficacy” value was 2. For the same compound, in [6] (eugenol, N = 5, around the horn bud), the “Ineffective, of these around the horn bud (number of animals)” value was 1. Besides, the “Character and course of the swelling” value in data set [7] (following the injection) is “painless to touch and resolved after few days”. Further, the “Swelling around the horn buds” value in [7] (following the injection) is “Swelling around the horn buds was observed; also recorded: Painless swelling at site of injection”. Also, in [7] (main finding 4), the “Swelling and scars at the site of injection” value was “slight swelling and scars at the site of injection”. Further, in data set [7] (site of injection), the “Scars and depression at the site of injection” value was “scars and depression were seen at the site of injection”. For the same compound, the Disbudding efficacy result in [8] is recorded as “relatively ineffective, delaying rather preventing horn growth in many cases”.

Regarding `CCN(CC)CCCC(C)Nc1c2ccc(Cl)cc2nc2ccc(OC)cc12` (stereo not drawn) [Mepacrine dihydrochloride], the Horn growth in [9] (setting [17]) is given as 9; in data set [9] (setting [18]), 7; in [9] (setting [19]) it was 2; in data set [9] (setting [20]) it was 7; in data set [9] (setting [22]), 1; in data set [9] (setting [23]) it was 1. In addition, the Scurs worked out at 1 in data set [9] (setting [17]); 3 in data set [9] (setting [19]); 1 in data set [9] (setting [21]); 1 in data set [9] (setting [22]); 2 in [9] (setting [23]); 2 in [9] (setting [24]). The Success rate is given as 0% in data set [9] (setting [17]); 30% in [9] (setting [18]); 50% in data set [9] (setting [19]); 30% in [9] (setting [20]); 90% in data set [9] (setting [21]); 80% in data set [9] (setting [22]). Further, the Success rate in data set [9] (setting [23]) was determined as 70%; in [9] (setting [24]), 80%. The No horn growth in data set [9] (setting [18]) is listed as 3; in [9] (setting [19]), 5; in data set [9] (setting [20]), 3; in data set [9] (setting [21]), 9; in [9] (setting [22]), 8; in [9] (setting [23]), 7. In [9] (setting [24]), this compound gave a No horn growth of 8. Besides, in data set [9] (0.5 mL of 200 mg/mL and 400 mg/L (so in the source), single injection and divided dose), the “Success rate (in words)” value is given as “high success rates”. The “Success rate by concentration (in words)” value in [9] (200 and 400 mg/mL vs 50 and 100 mg/mL) was “higher success rate in the higher concentration groups of 200 and 400 mg/mL”. In addition, the “Advantage of splitting the dose into multiple injections” value in data set [9] (single vs multiple injections) was “no noticeable advantage”. Also, the Pain response entry in [10] (after mepacrine disbudding treatment) was “very little pain response”. Moreover, the “Discomfort and pain reactions/behaviour” value in data set [10] (during administration) was “very little discomfort during administration and showed no pain reactions/behaviour”. Also, the “Discomfort / pain activity during and after injections” value in [10] (during injections and after completion) was “discomfort during the injections and no subsequent pain activity after completion of the injections”. The “Function as chemical disbudding agents” value in data set [5] is listed as “effective chemical disbudding agents”.

Consider `[Na+].[OH-]` [caustic soda], for which the Adverse effects result in data set [11] is reported as “can lead to blindness of the treated animals”.

The values above are taken from patent US20260344621A1, “CHEMICAL DISBUDDING METHOD” (WELFARE CONCEPTS LIMITED, priority 2022, published 2026).
